Measurements from patent US4698300A, “Process and reagent for the determination of α-amylase” (Merck Patent Gesellschaft mit beschrankter Haftung, priority 1983, dated 1987).

Legend:
[1] = pH dependency of the absorption; format: physicochemical; conditions: reagent solution adjusted to pH 7.1, pH increased and decreased stepwise, FIG. 2, versus 4-nitrophenol
Experimental: Determination of α-amylase, pH dependency of the absorption
Under the same conditions as in Example 1, there are measured the extinctions of two reagent solutions adjusted to a pH value of 7.1, one of which contains 2-chloro-4-nitrophenol, the other 4-nitrophenol.

α-amylase = assay: determination of α-amylase, time-reaction curve with α-glucosidase and β-glucosidase, extinction at 405 nm; format: biochemical; conditions: for extinction change per minute: substrate in α-amylase determination, FIG. 1, 405 nm, 30° C.
Experimental: For the determination of α-amylase, the reagent solution of substrate, α-glucosidase, β-glucosidase, buffer and activation agent is mixed with the sample solution and the extinction recorded at 405 nm e.g. at 30° C. Typically, 0.2-3.0 ml of reagent is mixed with 1.0-50 μl of sample for ordinary α-amylase concentrations.
Determination of α-amylase
A reagent composition is prepared which, per ml. of test volume, contains the following components: […]
2-chloro-4-nitrophenyl-β,D-
phosphate buffer (pH 6.8)
sodium chloride 0.05 Mol/l.
carrying out of the test: 1 ml. reagent + 10 μl. sample

[2] = optimum pH conditions of the α-amylase determination (6.8-7.1); cited from earlier work

O=[N+]([O-])c1ccc(O)c(Cl)c1 [2-chloro-4-nitrophenol]
influence of change of the pH value on the extinction [1]: less strongly influenced by change of the pH value

O=[N+]([O-])c1ccc(O[C@H]2O[C@H](CO)[C@@H](O[C@H]3O[C@H](CO)[C@@H](O[C@H]4O[C@H](CO)[C@@H](O[C@H]5O[C@H](CO)[C@@H](O[C@H]6O[C@H](CO)[C@@H](O[C@H]7O[C@H](CO)[C@@H](O[C@H]8O[C@H](CO)[C@@H](O)[C@H](O)[C@H]8O)[C@H](O)[C@H]7O)[C@H](O)[C@H]6O)[C@H](O)[C@H]5O)[C@H](O)[C@H]4O)[C@H](O)[C@H]3O)[C@H](O)[C@H]2O)c(Cl)c1 [2-chloro-4-nitrophenyl-α,D-maltoheptaoside, reference compound]
extinction change per minute (α-amylase): 0.036

O=[N+]([O-])c1ccc(O[C@@H]2O[C@H](CO)[C@@H](O[C@H]3O[C@H](CO)[C@@H](O[C@H]4O[C@H](CO)[C@@H](O[C@H]5O[C@H](CO)[C@@H](O[C@H]6O[C@H](CO)[C@@H](O[C@H]7O[C@H](CO)[C@@H](O[C@H]8O[C@H](CO)[C@@H](O)[C@H](O)[C@H]8O)[C@H](O)[C@H]7O)[C@H](O)[C@H]6O)[C@H](O)[C@H]5O)[C@H](O)[C@H]4O)[C@H](O)[C@H]3O)[C@H](O)[C@H]2O)c(Cl)c1 [2-chloro-4-nitrophenyl-β,D-maltoheptaoside]
increase of the change of absorption (Δ E/min.) (α-amylase; line I in comparison with line III (4-nitrophenyl-α,D-maltoheptaoside), FIG. 1, Example 1): ~ 0.05
factor of increase of extinction change per minute (α-amylase; relative to 4-nitrophenyl-α,D-maltoheptaoside, FIG. 1): 3
extinction change per minute (α-amylase): above 0.075

O=[N+]([O-])c1ccc(O[C@H]2O[C@H](CO)[C@@H](O[C@H]3O[C@H](CO)[C@@H](O[C@H]4O[C@H](CO)[C@@H](O[C@H]5O[C@H](CO)[C@@H](O[C@H]6O[C@H](CO)[C@@H](O[C@H]7O[C@H](CO)[C@@H](O[C@H]8O[C@H](CO)[C@@H](O)[C@H](O)[C@H]8O)[C@H](O)[C@H]7O)[C@H](O)[C@H]6O)[C@H](O)[C@H]5O)[C@H](O)[C@H]4O)[C@H](O)[C@H]3O)[C@H](O)[C@H]2O)cc1 [4-nitrophenyl-α,D-maltoheptaoside, reference compound]
extinction change per minute (α-amylase): 0.024

O=[N+]([O-])c1ccc(O)cc1 [p-nitrophenol]
liberated p-nitrophenol present as colored phenolate anion [2]: about 50%
